Results published in US20130203822A1, “COMPOUNDS FOR TREATMENT OF TUMORS BEARING D[…] ONCOPROTEINS” (priority 2010, published 2013).
Where a name gives a salt, the structure may show the parent alone.

Tests used:
[1] = system: CHP134-MYCN#3 neuroblastoma cell clone; test: WST-1 cell cytotoxicity assay with selected hits at 2 uM; type: cell-based, human; conditions: MYCN-amplified neuroblastoma cells, 24 or 48 hours
Method: a) Cell cytotoxicity was performed by WST1 assay (Roche) following the manufacturer's instruction: 15000 cells were plated in each well of 96-well transparent Spectra Plate (Perkin Elmer) in 150 ul of complete media.
(§1) After adhesion, cells were treated with the selected drugs (Table 1) at 2 uM concentration and incubated at 37° with 5% CO2 and 100% relative humidity for 24 or 48 hours. At the defined endpoint, 15 uL of WST1 reagent were added and after 4 hours incubation at 37° with 5% CO2 and 100% relative humidity, plates were read for absorbance at 450 nm in a Tecan F200 multiplate reader (Tecan).
(§2) Different measurements were needed in order to calculate the percentage growth: time zero (Tz: that represent a measurement of the cell population at the time of drug addition), control growth (C: measures the growth of the cells treated with vehicle only after 24 or 48 hours) and test growth (Ti: that represent a measurement of the cell population after 24 or 48 hours). Percentage growth is calculated as:
[(Ti−Tz)/(C−Tz)]×100 eq. (2)
for concentrations for which Ti>=Tz;
for concentrations for which Ti<Tz.

[2] = rat; cited from earlier work
[3] = system: MYCN protein; test: immunofluorescence analysis of MYCN expression; type: cell-based, human; conditions: CHP134 cells, 24 h, different concentration of CPX
Method: To verify if the CPX enhancement effects on luciferase activity was accompanied by an increase in MYCN protein levels, an immunofluorescence analysis were performed on CHP134 cells plated in 96-well imaging plates (BD) and treated after adhesion for 24 h at different concentration of CPX. Cells were fixed by paraformaldehyde (PFA) 3.7%, permeabilized with 0.1% Triton X100, incubated with anti-MYCN mouse monoclonal antibody (ab16898, ABCAM) and stained with Alexafluor 488 rabbit anti-mouse secondary antibody.
Images were acquired by Operetta (Perkin Elmer) high content system and analyzed by the Harmony software.
Results represent fluorescence intensity in the nuclear area previously identified by DAPI staining.

[4] = system: CHP134 cells; test: Annexin V-FITC / PI apoptosis assay by flow cytometry; type: cell-based, human; conditions: CHP134, 24 and 48 hr, different concentrations
Method: c) Apoptosis assay was performed by flow cytometry. CHP134 cells were seeded 10 cm-dishes at the concentration 1×10^6 cells under standard culture conditions. In three days cells were treated with CPX at different concentration for 24 and 48 hr. The cells were then harvested, washed with cold PBS and processed for apoptosis assay using the Annexin V-FITC Apoptosis Detection Kit I (BD Biosciences) by following the instructions of the manufacturer. Briefly, cells were stained with FITC-Annexin V and PI (Propidium Iodide) in order to allow for the identification of death cells (FITC and PI positive), viable cells (FITC and PI negative) and pre-apoptotic cells (FITC positive and PI negative). Flow cytometric analysis was performed with the BD FACS Canto (BD Biosciences).
The results are shown, in FIG. 6. Numbers indicate the percentage of apoptotic/dead cells (P1) and pre-apoptotic cells (P2) respectively.

[5] = system: MYCN 3′UTR; test: luciferase reporter screening and counter-screening in CHP134-MYCN and CHP134-CTRL stable clones; type: cell-based, human; conditions: 24 h; for dependence of luciferase reporter upregulation on MYCN 3′UTR (counter-screening): 2 uM, CHP134-MYCN#3 versus CHP134-CTRL#19
Method: Reporter constructs containing the firefly luciferase reporter gene under the control of the CMV viral promoter and followed by either the whole MYCN 3′UTR (pGL4.26-MYCN3UTR) or the only SV40 poly(A) region (pGL4.26-CTRL) as a control were produced as disclosed above.
The CHP134 neuroblastoma cell line was used to generate stable transfection clones as disclosed in Example 3.
The screening was carried out in the CHP134-MYCN#3 stable clone with the Spectrum Collection small molecule library (MicroSource Discovery) composed of 2000 compounds stored at 10 mM in DMSO: 800 drugs that have been introduced in the US, 200 drugs that are limited in use to Europe and Japan, 580 natural products, 420 compounds with reported biological activities.
The assay was run in triplicates in 96-well plates. CHP134-MYCN stable clone cells were trypsinized, harvested and resuspended in culture medium. Tecan Multichannel arm (MCA96) of a Tecan EVO 200 robot (Tecan) was used to add 150 uL containing 15000 cells to the 96-well white CulturePlate-96 (Perkin Elmer).
After adhesion, the 10 mM compounds were diluted to 75 uM in PBS and immediately pipetted into the 96 wells in order to have a final concentration of 2 uM in the cells. Baseline controls were obtained treating the first column wells with PBS+DMSO at the same final concentration of the samples.
Luciferase activity was assessed using OneGlow Luciferase assay (Promega) according to the manufacturer's method, after 24 h of incubation at 37° with 5% CO2 and 100% relative humidity. Luminescence signal was read on a Tecan F200 multiplate reader (Tecan) integrated with the robot.
The majority of the hits (Table 1) were then checked for reproducibility and cytotoxic activity, the most interesting compounds were also tested for dose-responsiveness. The same hits were subsequently subjected to counter-screening with the stable clone CHP134-CTRL#19 expressing the control pGL4.26-CTRL plasmid, to segregate plasmid promoter-dependent transcriptional control effects.
To verify the specificity of the CPX effect for the MYCN 3′UTR and its clone-independency, the treatment was repeated with the CHP134-MYCN#3 clone and the CHP134-CTRL#19 clones and with two independent others, again stably transfected with the pGL4.26-MYCN3UTR and the pGL4.26-CTRL plasmids (respectively, CHP134-MYCN#1 and the CHP134-CTRL#17 clones).
Treatment with CPX 2 uM and measurement of luciferase activity with the OneGlow luciferase assay after 24 h provided a confirmation of the screening results (FIG. 3).

[6] = humans; deferiprone: iron overload treatment in transfused thalassemia patients; doxorubicin: high dose infusional in tumor bearing patients; cited from earlier work
[7] = system: CHP134 and SiMa neuroblastoma cell lines; test: WST-1 dose-response cytotoxicity of ciclopirox olamine and piroctone olamine; type: cell-based, human; conditions: 0.33-100 μM, 48 hours
Method: as §1, with “different concentration of CPX ranging from 66 nM to 66” for “the selected drugs (Table 1) at 2”, “for” for “for 24 or”, “ul” for “uL”
as §2, with “after” for “after 24 or”, “hours treatment with CPX).” for “hours). Percentage growth is calculated as:”
Percentage growth is calculated as above by means of eq.s (2) and (3).
In order to understand if compounds of similar molecular structure to that of CPX could be also effective in inducing a cytotoxic activity, we treated two neuroblastoma cell lines, CHP134 and SiMa, with increasing concentrations of both compounds (0.33-1-3.3-10-33-100 μM), and we measured cytotoxicity after 48 hours as detailed before.

| SMILES | cytotoxicity [1] | acute lethal dose 50 (LD50) [2] | dependence of luciferase reporter upregulation on MYCN 3′UTR (counter-screening) [5] | plasma concentration [6] | further results |
| --- | --- | --- | --- | --- | --- |
| Cc1cc(C2CCCCC2)n(O)c(=O)c1 [ciclopirox olamine, CICLOPIROX OLAMINE] | efficient cytotoxicity | 2350 mg/kg | truly dependent on MYCN 3′UTR | – | MYCN nuclear immunostaining (fluorescence intensity in the nuclear area) [3]: dose-dependent increase; effect on cell viability: percentage of apoptotic/dead (P1) and pre-apoptotic (P2) cells [4]: increased percentage of apoptotic/dead cells; luciferase expression ([5]; CPX 2 uM, clones CHP134-MYCN#3, CHP134-MYCN#1, CHP134-CTRL#19, CHP134-CTRL#17): clone-independent, MYCN 3′UTR specific effect of increased luciferase expression |
| COc1cccc2c1C(=O)c1c(O)c3c(c(O)c1C2=O)C[C@@](O)(C(C)=O)C[C@@H]3O[C@H]1C[C@H](N)[C@H](O)[C@H](C)O1 [daunorubicin, DAUNORUBICIN] | efficient cytotoxicity | – | truly dependent on MYCN 3′UTR | – | – |
| Cc1c(O)c(=O)ccn1C [deferiprone, 3-hydroxy-1,2-dimethylpyridin-4-one] | – | 2000 mg/kg | – | ≥ 250 µM | – |
| COc1cccc2c1C(=O)c1c(O)c3c(c(O)c1C2=O)C[C@@](O)(C(=O)CO)C[C@@H]3O[C@H]1C[C@H](N)[C@H](O)[C@H](C)O1 [doxorubicin, DOXORUBICIN] | efficient cytotoxicity | 10.5 mg/kg | truly dependent on MYCN 3′UTR | 0.1 µM | – |
| COc1cccc2c1C(=O)c1c(O)c3c(c(O)c1C2=O)C[C@@](O)(C(=O)CO)C[C@@H]3O[C@H]1C[C@H](N)[C@@H](O)[C@H](C)O1 [epirubicin, EPIRUBICIN HYDROCHLORIDE] | efficient cytotoxicity | – | – | – | – |
| Cc1cc(CC(C)CC(C)(C)C)n(O)c(=O)c1.NCCO (stereo not shown) [piroctone olamine] | – | – | – | – | cytotoxic activity compared with CPX [7]: even stronger activity |
